Data: patent US6806257B1, “Flavones as inducible nitric oxide synthase inhibitors, cyclooxygenase-2 inhibitors and potassium channel activators” (priority 1999, dated 2004)
Entries after “also recorded” stand apart in the source; their conditions may differ.

How the values were obtained:
[1] = tested on: porcine cerebral arteries; experiment: Relaxation elicited by transmural nerve stimulation (TNS) in cerebral arterial segments; details: acute administration 30 μM, U-46619 tone
Protocol: (§1) In vitro tissue bath studies. The arterial segment (4 mm long) of the circle of Willis was dissected and cannulated with a stainless-steel rod (30-28 gauge) of hemispherical section, and a short piece of platinum wire, and mounted horizontally in a plastic tissue bath containing 6 ml of Krebs' bicarbonate solution. The platinum wire was bent into a U shape and anchored to a gate. The stainless-steel rod was connected to a stain gauge transducer (UC3, available from Gould) for isometric recording of changes in force. The temperature of Krebs' solution in the tissue baths, equilibrated with 95% O2 and 5% CO2, was maintained at 37° C. Tissues were equilibrated in the Krebs' solution for an initial 30 minutes and were mechanically stretched to a resting tension of 0.75 g for another 30 minutes. The segments of the circle of Willis were precontracted with 9,11-dideoxy-9α,11α-epoxymethanoprostagladin F2α(U-46619, 1 μM) to induce an active muscle tone of 0.5-0.75 g. Experimental drugs such as L-arginine and Oroxylin A of various concentrations, and TNS at 2,4,8 Hz were applied to induce relaxation. The arteries were then washed with pre-warmed Krebs' solution. […] Stimulation parameters were continuously monitored on a Tektronix oscilloscope. […] The magnitude of a vasodilator response induced by experimental drugs and TNS was expressed as a percentage of the maximum response induced by PPV. […]

[2] = tested on: LPS-induced NO production in RAW264.7 macrophages; experiment: LPS-induced nitrite (NO) production in RAW264.7 macrophages, Griess reaction; format: cell-based, mouse; details: 5, 10 or 20 μg/ml together with 100 ng/ml LPS for 24 hours
Protocol: (§2) Cells. RAW264.7, a mouse macrophage cell line, was obtained from American Type Culture Collection. Cells were cultured in RPMI-1640 medium (available from Gibco Life Technology, in Gaithersburg, Md.) supplemented with 2 mM L-glutamine, antibiotics (100 units/ml penicillin-A and 100 units/ml streptomycin) and 10% heat-inactivated fetal bovine serum (Gibco/BRL) and maintained at 37° C in a humidified incubator containing 5% CO2.
Nitrite assay. The nitrite concentration in the medium was measured as an indicator of NO production according to the Griess reaction (Kim et al., J. Immunol. 153: 4741-4748). One hundred microliters of each supernatant was. mixed with the same volume of Griess reagent (1% sulfanilamide in 5% phosphoric acid and 0. 1% naphthylethylenediamine dihydrochloride in water); absorbency of the mixture at 550 nm was determined with an enzyme-linked immunosorbent assay plate reader (Dynatech MR-7000; Dynatech Labs, Chantilly, Va.).
The effects of flavonoids, ellagitannins, anthraquinones on LPS-induced NO production in macrophages were studied as follows. The chemical structures of two flavonoids (myricitrin, N1; oroxylin A, N2) four ellagitannins (penta-O-galloyl-β-glucopyranose, N3; woodfordin C, N4; onothein B, N5; cuphiin, N6), and two anthraquinones (emodin, N7; physcion, N8) that were used in the present study were shown in FIG. 1. The effects of these eight compounds on NO production in RAW264.7 macrophages were investigated. The accumulated nitrite in the culture medium was used as an index for NO synthesis from these cells. […]

[3] = tested on: iNOS; experiment: LPS-induced iNOS expression in RAW264.7 macrophages (western/northern blot); format: cell-based, mouse
Protocol: as §2
(§3) Western blots. Total cellular extract, cytosolic fractions (for IkB) and nuclear fraction (for p65 antibody) were prepared according to Muller et al., Immunobiology, 187, 233-256, 1993 and separated on sodium dodecyl sulfatepolyacrylamide minigels (8% for iNOS or COX-2, and 10% for IkB or p65) and transferred to immobilon polyvinylidene difluoride membranes (Millipore, Bedford, Mass.). The membrane was incubated overnight at 4° C. with 1% bovine serum albumin and then incubated with anti-iNos, COX-2, α-Tubulin monoclonal antibodies (Transduction Laboratories, Lexington, Ky.), anti-IkB or anti-p65 polyclonal antibodies (Santa Cruz Biochemicals, Santa Cruz, Calif.). iNOS, IkB, p65, Cox-2, α-Tubulin were detected by NBT and BCIP staining (Sigma Chemical Co., St. Louis, Mo.).
Northern blot analysis. Total RNA (20 μg/lane) were separated by electrophoresis on 1.2% agarose gel containing 6.7% formaldehyde and transformed to a Hybond-N nylon membrane (American Life Science) in 20×standard saline citrate (3 M sodium chloride and 0.3 M sodium citrate, pH 7.0). After heating at 80° C. for 2 hours and prehybridization for 4 hours, the filters were hybridized with ^32P-labeled murine iNOS cDNA probes at a concentration of 3×10^6 cpm/ml for 16-18 hours at 42° C. The probe was labeled with [α-32P] dCTP by using Random Primer labeling kit (Stratagene, La Jolla, Calif.). Then, the filters were washed, dried and autoradiographed with Kodak-X-Omat XAR-film using intensifying screens at −80° C.

[4] = tested on: nNOS; experiment: nNOS expression in cultured primary smooth muscle cells from porcine cerebral arteries; format: cell-based; details: 30 μM and 60 μM
[5] = tested on: COX-2; experiment: LPS-induced COX-2 expression in RAW264.7 macrophages (western/northern blot); format: cell-based, mouse
Protocol: as §2, §3

[6] = tested on: COX-2; experiment: LPS-induced COX-2 mRNA in Bcl-2-overexpressed RAW264.7 cells; format: cell-based, mouse; details: 20 μg/ml, LPS 100 ng/ml
[7] = tested on: porcine cerebral arteries; experiment: L-arginine-induced relaxation in LPS-incubated cerebral arteries without endothelial cells; details: LPS 10 μg/ml 20 hours, concomitant 60 μM, U-46619 tone
Protocol: as §1

Compound: COc1c(O)cc2oc(-c3ccccc3)cc(=O)c2c1O [oroxylin A, 5,7-dihydroxy-6-methoxy flavone]
- relaxation elicited by TNS at 2, 4, and 8 Hz [1]: slightly and significantly enhanced; also recorded: increased
- LPS-induced nitrite production [2]: significant inhibition
- blocking LPS-induced iNOS gene expression, comparison among compounds tested [3]: most potent among the compounds tested
- LPS-induced iNOS protein ([3]; 100 ng/ml LPS, western blot): inhibited LPS-induced iNOS protein in a concentration-dependent manner
- expression of nNOS [4]: did not affect
- LPS-induced COX-2 gene expression (protein and mRNA) [5]: most potent among the compounds tested; also recorded: inhibited
- LPS-induced COX-2 mRNA [6]: inhibited
- LPS-rendered L-Arginine-induced relaxation [7]: significantly decreased
